Data published in patent US20100298299A1, “NON-PEPTIDE DERIVATIVES AS BRADYKININ B1 ANTAGONISTS” (priority 2007, published 2010).
Counter-ions that a name gives are not always drawn. Like-named read-outs stand apart in the source and are kept apart here.

How the values were obtained:
[1] = molecular target: T1, recombinant human B1 receptors (Homo sapiens, UniProt P46663); assay: Functional assay: antagonist potency by cytosolic calcium measurement in CHO-B1 cells; assay type: cell-based
T1 construct: host or cells: CHO (CHO-B1)
T1 sequence (P46663 1-353): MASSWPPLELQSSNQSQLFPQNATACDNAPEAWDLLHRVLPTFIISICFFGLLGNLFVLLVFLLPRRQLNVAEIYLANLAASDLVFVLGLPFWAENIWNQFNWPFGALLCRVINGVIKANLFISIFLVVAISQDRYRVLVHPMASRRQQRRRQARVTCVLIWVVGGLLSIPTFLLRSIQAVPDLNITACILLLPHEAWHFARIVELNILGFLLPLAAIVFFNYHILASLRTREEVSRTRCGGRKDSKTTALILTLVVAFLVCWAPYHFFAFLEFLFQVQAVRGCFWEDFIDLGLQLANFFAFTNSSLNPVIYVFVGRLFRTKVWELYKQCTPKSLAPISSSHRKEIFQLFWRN
Protocol: Assessment of Antagonist Potency at B1 and B2 Receptors In Vitro by Measurement of Cytosolic Calcium Ion Concentration with a Plate Reader Fluorimeter in Cells Expressing Recombinant Human B1 or B2 Receptors
Chinese hamster ovary (CHO) cells stably expressing recombinant human B1 (CHO-B1, Euroscreen) or B2 (CHO-B2, Perkin-Elmer) receptors were cultured in Dulbecco's Modified Eagle's Medium (DMEM) containing 10% Fetal Calf Serum (FCS), 100 U/ml penicillin, 0.1 mg/ml streptomycin, 0.25 μg/ml amphotericin B, 1% Minimum Essential Medium Eagle (MEM), non essential amino acid solution, 600 μg/ml G418, 1% pyruvate (for the B2 cell line). Cells were kept at 37° C. in a humidified incubator in an atmosphere of 5% CO2/95% air and were passaged 1:4 three times a week. Cells were plated at 1.5−2.5×10^4 cell/well on standard 96-well microplates, measurements of cytosolic calcium ion concentration ([Ca^2+]i) were carried out 1-2 days after cell plating.
Measurements of [Ca^2+]i were carried out on CHO-B1 and CHO-B2 cells stably expressing human B1 and B2 receptors, respectively. Cells were grown in standard 96-well microplates and before the measurement were loaded with a fluorescent Ca^2+-sensitive dye, fluo-4/AM (2 μM): after removing the culture medium the dye was added to the cells (dissolved in assay buffer: 145 mM NaCl, 5 mM KCl, 2 mM MgCl2, 2 mM CaCl2, 10 mM HEPES, 20 mM D-glucose, 2 mM probenecid, 100 μl/well) and cells were incubated at 37° C. in a humidified incubator in an atmosphere of 5% CO2/95% air for 40-120 min. To stop dye loading cells were washed twice with assay buffer. After washing, various concentrations of the test compounds (diluted in extracellular medium from a DMSO stock solution, final DMSO concentration was <0.1%) or buffer were added to each well depending on the experimental setup. After incubation at 37° C. for 20-25 min. baseline and agonist-evoked changes of [Ca^2+]i were measured column by column with a plate reader fluorimeter (Fluoroskan Ascent, Labsystems). Excitation and detection of emission was carried out from the bottom of the plate. Filters used for Fluo-4: excitation filter—485 nm, emission filter—538 nm. The whole measurement process was performed at 37° C. and was controlled by custom software. Inhibitory potency of the test compounds was assessed by measuring the reduction in the agonist-evoked [Ca^2+]i-elevation in the presence of different concentrations of the compounds. The agonists were LysDABK for CHO-B1, and bradykinin for CHO-B2 cells. Agonists were applied at an EC80 concentration, the EC80-values were derived from daily determined dose-response curves. Fluorescence data were expressed as ΔF/F (fluorescence change normalized to baseline). All treatments on a single plate were measured in multiple wells. Data from all wells with the same treatment were averaged and the average values were used for analysis. Inhibitory potency of a compound at a single concentration point was expressed as percent inhibition of the control agonist response. Sigmoidal concentration-inhibition curves were fitted to the data (derived from at least three independent experiments) and IC50-values were determined as the concentration that produces half of the maximal inhibition caused by the compound.

[2] = molecular target: T2, human recombinant bradykinin B1 receptor (Homo sapiens, UniProt P46663); assay: Human recombinant bradykinin B1 receptor binding
T2 construct: purchased Euroscreen ES-091; host or cells: CHO cells
T2 sequence (P46663 1-353): T1 sequence (P46663 1-353)
Protocol: 1. Human Recombinant Bradykinin B1 Receptor Binding
Binding assays were carried out on human recombinant bradykinin) receptors (expressed in CHO cells) according to the Euroscreen Technical Data Sheet (Cat. No.: ES-091). 20 μg protein/tube was incubated with [3,4-prolyl-3,4-^3H(N)]-[Des-Arg^10] Kallidin as radioligand. Non specific binding was determined in the presence of 10 μM Lys-des-Arg^9-Bradykinin. The final incubation volume was 250 μl. Samples were incubated for 15 min. at 25° C. then were rapidly vacuum filtered through GF/B filters presoaked for at least 1 h in 0.5% PEI. Radioactivity was determined by liquid scintillation spectroscopy.

[3] = reference compounds, functional test, read-out: IC50
[4] = reference compounds, binding test, read-out: Ki

Row | IC50 ([1]; CHO-B1 cells, inhibition of LysDABK (EC80)-evoked [Ca2+]i elevation, read-out: B1 func.) | Ki ([2]; CHO cell membranes, [3H]-[Des-Arg10] Kallidin radioligand, read-out: B1 binding) | Structure (SMILES) | IC50 [1, 3] | Ki [2, 4]
1 | < 20 nM | < 20 nM | O=C(CNC(=O)c1ccc(S(=O)(=O)Nc2ccccc2Sc2ccccc2)cc1)NCC1CCNCC1 [Example 39, 4-(2-Phenylsulfanyl-phenylsulfamoyl)-N-{[(piperidin-4-ylmethyl)-carbamoyl]-methyl}-benzamide hydrochloride] | – | –
2 | – | – | CN1CCN(C(=O)C2CCN(S(=O)(=O)c3ccc(NCC(c4ccccc4)c4ccccc4)c(C(=O)N4CCOCC4)c3)CC2)CC1 [NVP-SAA164, 4-{2-[(2,2-diphenyl-ethyl)-amino]-5-{4-[4-[(4-methyl-1-piperazinyl)-carbonyl]-1-piperidinyl]-sulfonyl}-benzoyl}-morfoline, reference compound] | 33 nM | 8 nM
3 | – | – | CCCN1C(=O)[C@H](NC(=O)Nc2ccc(N3CCC(N4CCCCC4)CC3)cc2)N=C(c2ccc(C)cc2)c2ccccc21 [compound 3, N-[4-(4′-bipiperidin)-1′-ylphenyl]-N′-[(3R)-2,3-dihydro-5-(4-methyl-phenyl)-2-oxo-1-propyl-1H-1,4-benzodiazepin-3-yl]-urea, reference compound] | 64.5 nM | 13.4 nM
